Experimental findings from patent US10160755B2 (Plexxikon Inc., priority 2015, dated 2018) are described below.

The target in one experiment is T1, FLT3-ITD (Homo sapiens, UniProt P36888).
T1 construct: FLT3-ITD; Invitrogen #PV6190
T1 sequence (P36888 1-993): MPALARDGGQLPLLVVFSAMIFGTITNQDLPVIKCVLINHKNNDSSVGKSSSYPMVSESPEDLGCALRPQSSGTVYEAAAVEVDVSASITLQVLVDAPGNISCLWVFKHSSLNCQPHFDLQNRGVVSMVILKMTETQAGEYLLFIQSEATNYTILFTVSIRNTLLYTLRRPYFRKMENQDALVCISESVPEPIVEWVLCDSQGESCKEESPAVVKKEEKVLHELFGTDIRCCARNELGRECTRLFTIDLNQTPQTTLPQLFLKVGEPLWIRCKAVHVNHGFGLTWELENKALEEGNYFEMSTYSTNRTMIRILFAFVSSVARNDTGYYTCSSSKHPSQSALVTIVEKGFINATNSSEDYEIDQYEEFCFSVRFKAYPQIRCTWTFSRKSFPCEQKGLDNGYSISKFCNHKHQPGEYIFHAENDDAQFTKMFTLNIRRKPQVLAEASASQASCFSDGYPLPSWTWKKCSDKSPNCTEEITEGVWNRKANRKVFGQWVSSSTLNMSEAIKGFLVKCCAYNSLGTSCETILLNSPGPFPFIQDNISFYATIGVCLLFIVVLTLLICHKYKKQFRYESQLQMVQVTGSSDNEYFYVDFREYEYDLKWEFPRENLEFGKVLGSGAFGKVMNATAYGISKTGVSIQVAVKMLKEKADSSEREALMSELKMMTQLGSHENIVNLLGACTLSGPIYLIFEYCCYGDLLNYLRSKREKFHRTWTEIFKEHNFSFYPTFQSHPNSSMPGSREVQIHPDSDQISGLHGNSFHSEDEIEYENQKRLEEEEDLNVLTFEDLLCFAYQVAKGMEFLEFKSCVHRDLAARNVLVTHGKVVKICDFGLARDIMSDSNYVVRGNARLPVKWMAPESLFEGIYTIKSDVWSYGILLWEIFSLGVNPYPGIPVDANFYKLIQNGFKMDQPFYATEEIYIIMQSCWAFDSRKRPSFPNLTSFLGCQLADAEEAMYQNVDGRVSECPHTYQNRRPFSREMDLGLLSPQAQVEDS
As to the kind of experiment: FLT3-ITD biochemical kinase assay (AlphaScreen). A digest of the protocol:
(§1)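 AlphaScreen read-out of tyrosine phosphorylation of a 30 nM biotinylated poly(Glu4-Tyr) substrate, captured on streptavidin donor and PY20 acceptor beads at room temperature. ATP for IC50 work was 100 μM with FLT3-ITD and 10 μM with FLT3-D835Y; reduced 580 nm proximity signal reflects kinase inhibition.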

In the next experiment the target is T2, FLT3-D835Y (Homo sapiens, UniProt P36888, D835Y).
T2 construct: purchased Invitrogen PV3967
T2 sequence (P36888 27-993 D835Y): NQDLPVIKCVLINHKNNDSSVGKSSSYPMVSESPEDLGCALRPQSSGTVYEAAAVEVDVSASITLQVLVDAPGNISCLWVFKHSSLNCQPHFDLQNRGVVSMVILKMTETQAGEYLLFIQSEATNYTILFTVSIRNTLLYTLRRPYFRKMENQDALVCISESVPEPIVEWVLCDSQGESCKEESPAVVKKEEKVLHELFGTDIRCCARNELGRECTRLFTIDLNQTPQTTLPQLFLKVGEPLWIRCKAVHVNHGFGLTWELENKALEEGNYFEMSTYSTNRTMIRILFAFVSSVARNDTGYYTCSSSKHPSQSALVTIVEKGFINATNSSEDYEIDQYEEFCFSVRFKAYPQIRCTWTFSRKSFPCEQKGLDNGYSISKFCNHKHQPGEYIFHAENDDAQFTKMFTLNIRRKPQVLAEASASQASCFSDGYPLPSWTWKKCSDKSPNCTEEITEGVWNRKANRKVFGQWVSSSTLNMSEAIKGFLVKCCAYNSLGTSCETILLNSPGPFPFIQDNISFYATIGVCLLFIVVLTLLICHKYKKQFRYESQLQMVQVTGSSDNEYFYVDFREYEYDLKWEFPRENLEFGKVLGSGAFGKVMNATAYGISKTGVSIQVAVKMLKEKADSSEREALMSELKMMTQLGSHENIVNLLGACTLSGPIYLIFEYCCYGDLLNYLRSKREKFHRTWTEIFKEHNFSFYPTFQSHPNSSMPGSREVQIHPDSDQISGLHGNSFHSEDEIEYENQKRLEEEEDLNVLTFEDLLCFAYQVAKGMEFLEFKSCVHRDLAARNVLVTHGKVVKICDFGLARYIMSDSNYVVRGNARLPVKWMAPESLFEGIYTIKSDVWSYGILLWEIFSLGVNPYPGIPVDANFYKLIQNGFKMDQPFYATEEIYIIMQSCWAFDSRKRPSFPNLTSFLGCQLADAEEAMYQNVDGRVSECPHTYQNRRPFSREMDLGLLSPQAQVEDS
As to the kind of experiment: FLT3-D835Y biochemical kinase assay (AlphaScreen). In outline: as §1
On the technique in general: Alpha assays give light when donor and acceptor beads are brought close together.

The next experiment has as its target c-Kit (Homo sapiens, UniProt P10721). As to the kind of experiment: c-Kit biochemical assay (per US 2007/0032519). On the procedure:
The following Table 2 provides data indicating FLT3 ITD, FLT3 D835Y, and KIT biochemical activity, and BaF3 FLT3 ITD/F69L cellular inhibitory activity for exemplary compounds described in this disclosure. In the table below, activity is provided as follows: +++=0.0001<IC50<1 μM; ++=1 μM<IC50<10 μM, +=10 μM<IC50<200 μM. Assays for the biochemical activity of c-Kit and FMS were conducted according to those assays described in US Patent Application Publication number US 2007/0032519, the disclosure of which is hereby incorporated by reference in its entirety.

Chain of c-Kit (P10721 26-976): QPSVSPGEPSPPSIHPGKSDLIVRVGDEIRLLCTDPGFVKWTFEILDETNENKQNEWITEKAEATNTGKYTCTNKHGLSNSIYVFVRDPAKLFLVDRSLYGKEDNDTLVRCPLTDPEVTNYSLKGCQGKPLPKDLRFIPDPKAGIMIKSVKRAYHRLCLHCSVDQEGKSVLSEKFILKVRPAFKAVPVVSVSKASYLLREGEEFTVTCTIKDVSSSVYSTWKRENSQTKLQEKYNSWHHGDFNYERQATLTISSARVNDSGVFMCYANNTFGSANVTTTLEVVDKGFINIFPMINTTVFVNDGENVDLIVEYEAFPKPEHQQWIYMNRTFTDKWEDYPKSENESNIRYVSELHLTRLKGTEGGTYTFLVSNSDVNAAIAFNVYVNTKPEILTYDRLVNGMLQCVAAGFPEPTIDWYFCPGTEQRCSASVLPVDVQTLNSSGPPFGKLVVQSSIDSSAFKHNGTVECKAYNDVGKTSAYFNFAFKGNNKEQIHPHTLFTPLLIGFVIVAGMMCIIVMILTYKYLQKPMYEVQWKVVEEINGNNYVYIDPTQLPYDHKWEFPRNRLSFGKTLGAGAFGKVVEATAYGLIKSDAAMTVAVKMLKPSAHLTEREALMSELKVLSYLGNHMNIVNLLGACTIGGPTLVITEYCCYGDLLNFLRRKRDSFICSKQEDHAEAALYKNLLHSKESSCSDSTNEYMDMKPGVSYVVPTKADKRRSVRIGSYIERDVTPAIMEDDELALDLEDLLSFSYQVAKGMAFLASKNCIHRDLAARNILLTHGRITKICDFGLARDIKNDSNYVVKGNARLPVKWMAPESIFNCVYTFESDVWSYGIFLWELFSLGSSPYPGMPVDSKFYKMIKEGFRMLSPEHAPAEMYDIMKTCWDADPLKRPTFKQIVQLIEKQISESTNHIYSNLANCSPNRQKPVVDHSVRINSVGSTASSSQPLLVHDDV

In general, IC50 refers to the point on the concentration scale where inhibition reaches its midpoint. High values mean lower potency, low ones higher potency. Turning to `COc1ccc(-c2cnc3[nH]cc(-c4ccc5ncn(C)c5c4)c3n2)cn1` [P-041, 2-(6-methoxy-3-pyridyl)-7-(3-methylbenzimidazol-5-yl)-5H-pyrrolo[2,3-b]pyrazine], the IC50 was in the range of 0.0001 to 1 µM at FLT3-ITD, 0.0001 to 1 µM against FLT3-D835Y and 1 to 10 µM at c-Kit.

As for `O=S(=O)(C1CC1)N1CCC=C(c2cnc3[nH]cc(-c4ccc5[nH]cnc5c4)c3c2)C1` [P-032, 3-(1H-benzimidazol-5-yl)-5-(1-cyclopropylsulfonyl-3,6-dihydro-2H-pyridin-5-yl)-1H-pyrrolo[2,3-b]pyridine], the IC50 against FLT3-ITD was 0.0001 to 1 µM; against FLT3-D835Y, 1 to 10 µM; on c-Kit it was 10 to 200 µM.

Take `CNS(=O)(=O)c1cccc(-c2cnc3[nH]cc(-c4ccc5ncn(C)c5c4)c3c2)c1` [P-046, N-methyl-3-[3-(3-methylbenzimidazol-5-yl)-1H-pyrrolo[2,3-b]pyridin-5-yl]benzenesulfonamide]: the IC50 was 0.0001 to 1 µM at FLT3-ITD, 0.0001 to 1 µM against FLT3-D835Y and 10 to 200 µM against c-Kit.

As to `COc1cnc2[nH]cc(-c3ccc4ncn(Cc5ccccc5)c4c3)c2c1` [P-073, 1-benzyl-6-(5-methoxy-1H-pyrrolo[2,3-b]pyridin-3-yl)benzimidazole], the values for the IC50 against FLT3-D835Y and against c-Kit were 0.0001 to 1 µM and 1 to 10 µM, respectively.

`COc1cnc2[nH]cc(-c3ccc4ncn(C5CCNC5)c4c3)c2c1` (centres unmarked) [P-067, 5-methoxy-3-(3-pyrrolidin-3-ylbenzimidazol-5-yl)-1H-pyrrolo[2,3-b]pyridine]: the IC50 against FLT3-D835Y fell in the range of 0.0001 to 1 µM; at c-Kit, 10 to 200 µM.

Take `CNS(=O)(=O)c1ccc(-c2cnc3[nH]cc(-c4ccc5ncsc5c4)c3n2)cc1` [P-078, 4-[7-(1,3-benzothiazol-6-yl)-5H-pyrrolo[2,3-b]pyrazin-2-yl]-N-methyl-benzenesulfonamide]: the IC50 at FLT3-D835Y lay in the range of 0.0001 to 1 µM; at c-Kit it was 10 to 200 µM.

Take `CC(C)(C)n1cnc2ccc(-c3c[nH]c4ncc(-c5cnc(NS(C)(=O)=O)nc5)nc34)cc21` [P-404, N-[5-[7-(3-tert-butylbenzimidazol-5-yl)-5H-pyrrolo[2,3-b]pyrazin-2-yl]pyrimidin-2-yl]methanesulfonamide]: the IC50 was in the range of 0.0001 to 1 µM at FLT3-ITD and 1 to 10 µM at c-Kit.

As to `CC(C)(C)n1cnc2ccc(-c3c[nH]c4ncc(-c5cnc(Cl)nc5)nc34)cc21` [P-389, 7-(3-tert-butylbenzimidazol-5-yl)-2-(2-chloropyrimidin-5-yl)-5H-pyrrolo[2,3-b]pyrazine], the half-maximal inhibitory concentration (IC50) against FLT3-ITD lay within 0.0001 to 1 µM; against c-Kit, 10 to 200 µM.

`COc1cc(-c2cnc3[nH]cc(-c4ccc5ncsc5c4)c3n2)ccn1` [P-075, 6-[2-(2-methoxy-4-pyridyl)-5H-pyrrolo[2,3-b]pyrazin-7-yl]-1,3-benzothiazole]: the half-inhibitory concentration (IC50) against FLT3-D835Y lay in the range of 0.0001 to 1 µM; against c-Kit, 10 to 200 µM.

On to `COc1cnc2[nH]cc(-c3cc4nc[nH]c4cc3C)c2c1` [P-026, 5-methoxy-3-(6-methyl-1H-benzimidazol-5-yl)-1H-pyrrolo[2,3-b]pyridine], for which the results for the IC50 on FLT3-D835Y and at c-Kit were 1 to 10 µM and 10 to 200 µM, respectively.

In the case of `Cc1nn(C)cc1-c1ccc(-c2cnc3[nH]cc(-c4ccc5ncn(C(C)(C)C)c5c4)c3n2)cc1` [P-323, 7-(3-tert-butylbenzimidazol-5-yl)-2-[4-(1,3-dimethylpyrazol-4-yl)phenyl]-5H-pyrrolo[2,3-b]pyrazine], the IC50 on FLT3-ITD was 0.0001 to 1 µM; against c-Kit it was 1 to 10 µM.

On to `CS(=O)(=O)Nc1ccc(-c2cnc3[nH]cc(-c4ccc5ncsc5c4)c3n2)cc1` [P-076, N-[4-[7-(1,3-benzothiazol-6-yl)-5H-pyrrolo[2,3-b]pyrazin-2-yl]phenyl]methanesulfonamide], for which the results for the IC50 against FLT3-D835Y and on c-Kit were 0.0001 to 1 µM and 1 to 10 µM, respectively.

In the case of `Cn1cc(-c2cnc3[nH]cc(-c4ccc5ncn(C)c5c4)c3c2)ccc1=O` [P-118, 1-methyl-5-[3-(3-methylbenzimidazol-5-yl)-1H-pyrrolo[2,3-b]pyridin-5-yl]pyridin-2-one], the IC50 against FLT3-D835Y fell in the range of 0.0001 to 1 µM; against c-Kit, 1 to 10 µM.

Consider `Nc1n[nH]c2ccc(-c3c[nH]c4ncccc34)cc12` [P-006, 5-(1H-pyrrolo[2,3-b]pyridin-3-yl)-1H-indazol-3-amine], for which the IC50 at FLT3-ITD and against c-Kit was 1 to 10 µM in each case.

As for `Cc1cc2[nH]cnc2cc1-c1c[nH]c2ncccc12` [P-025, 6-methyl-5-(1H-pyrrolo[2,3-b]pyridin-3-yl)-1H-benzimidazole], the IC50 at FLT3-D835Y lay in the range of 1 to 10 µM; on c-Kit it was 10 to 200 µM.

On to `COc1cnc2[nH]cc(-c3ccc4ncn(C5CCCCC5)c4c3)c2c1` [P-072, 1-cyclohexyl-6-(5-methoxy-1H-pyrrolo[2,3-b]pyridin-3-yl)benzimidazole], for which the IC50 lay within 0.0001 to 1 µM against FLT3-D835Y and 1 to 10 µM against c-Kit.

Turning to `CC(C)(C)n1cnc2ccc(-c3c[nH]c4ncc(-c5cncc(N6CCOCC6)c5)nc34)cc21` [P-387, 4-[5-[7-(3-tert-butylbenzimidazol-5-yl)-5H-pyrrolo[2,3-b]pyrazin-2-yl]-3-pyridyl]morpholine], the IC50 against FLT3-ITD and at c-Kit was 0.0001 to 1 µM in each case.

Turning to `COc1cnc2[nH]cc(-c3ccc4ncn(C5CCNCC5)c4c3)c2c1` [P-071, 5-methoxy-3-[3-(4-piperidyl)benzimidazol-5-yl]-1H-pyrrolo[2,3-b]pyridine], the half-maximal inhibitory concentration (IC50) on FLT3-D835Y was 0.0001 to 1 µM; against c-Kit it was 10 to 200 µM.

Turning to `COc1cnc2[nH]cc(-c3ccc4ncn(C(C)C)c4c3)c2c1` [P-050, 1-isopropyl-6-(5-methoxy-1H-pyrrolo[2,3-b]pyridin-3-yl)benzimidazole], the IC50 was 0.0001 to 1 µM at FLT3-ITD and 10 to 200 µM on c-Kit.

In the case of `Cc1nn(C)cc1-c1cnc2[nH]cc(-c3ccc4ncn(C(C)(C)C)c4c3)c2n1` [P-324, 7-(3-tert-butylbenzimidazol-5-yl)-2-(1,3-dimethylpyrazol-4-yl)-5H-pyrrolo[2,3-b]pyrazine], the IC50 against FLT3-ITD and against c-Kit was 0.0001 to 1 µM each time.

Consider `CC(C)(C)n1cnc2ccc(-c3c[nH]c4ncc(-c5cncc(F)c5)nc34)cc21` [P-386, 7-(3-tert-butylbenzimidazol-5-yl)-2-(5-fluoro-3-pyridyl)-5H-pyrrolo[2,3-b]pyrazine], for which the half-inhibitory concentration (IC50) is 0.0001 to 1 µM against FLT3-ITD and 1 to 10 µM against c-Kit.

On to `COc1ccc(-c2cnc3[nH]cc(-c4ccc5ncsc5c4)c3n2)cn1` [P-077, 6-[2-(6-methoxy-3-pyridyl)-5H-pyrrolo[2,3-b]pyrazin-7-yl]-1,3-benzothiazole], for which the results for the half-inhibitory concentration (IC50) against FLT3-D835Y and at c-Kit were 0.0001 to 1 µM and 1 to 10 µM, respectively.
